pIC50, pKi: −log10 of the molar value. Where a name gives a salt, the structure may show the parent alone.
Tests used:
[1] = target: recombinant human 5-HT6 receptors (Homo sapiens (Human), UniProt P50406); assay: Competitive radioligand binding ([3H] Lysergic acid diethylamide) to serotonin 5-HT6 receptors, HeLa cell membranes; conditions: for pIC50: 1.5 nM [3H] Lysergic acid diethylamide, 120 min at 37° C.
Procedure: Screening of the disclosed compounds for their potential ability to interact with serotonin 5-HT6 receptors was carried out by the method of radioligand binding. For this purpose membrane species were prepared from HeLa cells expressing recombinant human 5-HT6 receptors, by means of cells homogenization in glass homogenizer with subsequent separation of plasmatic membranes from cell nucli, mitochondria's and cell wreckages by differential centrifugation. Determination of tested compounds binding to 5-HT6 receptors was carried out according to the method described in [Monsma F J Jr, Shen Y, Ward R P, Hamblin M W and Sibley D R, Cloning and expression of a novel serotonin receptor with high affinity for tricyclic psychotropic drugs. Mol. Pharmacol. 43:320-327, 1993]. […] After the incubation the samples were filtered in vacuo on glass-microfiber filters G/F (Millipor, USA), filters were washed three times with cold solution of the medium and radioactivity was measured by scintillation counter MicroBeta 340 (PerkinElmer, USA). […] Methiothepin was used as a positive control. Binding of the tested compounds with the receptor was determined by their ability to displace the radioligand and was expressed in percent of displacement. The percent of displacement was calculated according to the following equation:
[formula] wherein: TA—was overall radioactivity in the presence of radioligand only, CA—was radioactivity in the presence of radioligand and tested compound and NA—was radioactivity in the presence of radioligand and Serotonin (5 μM).

mice = assay: Passive Avoidance of mice in the Shuttle Chamber, memory disturbed by MK-801; assay type: in vivo; conditions: MK-801 0.1 mg/kg, injected 30 minutes before training

Sequence of recombinant human 5-HT6 receptors (P50406 whole entry): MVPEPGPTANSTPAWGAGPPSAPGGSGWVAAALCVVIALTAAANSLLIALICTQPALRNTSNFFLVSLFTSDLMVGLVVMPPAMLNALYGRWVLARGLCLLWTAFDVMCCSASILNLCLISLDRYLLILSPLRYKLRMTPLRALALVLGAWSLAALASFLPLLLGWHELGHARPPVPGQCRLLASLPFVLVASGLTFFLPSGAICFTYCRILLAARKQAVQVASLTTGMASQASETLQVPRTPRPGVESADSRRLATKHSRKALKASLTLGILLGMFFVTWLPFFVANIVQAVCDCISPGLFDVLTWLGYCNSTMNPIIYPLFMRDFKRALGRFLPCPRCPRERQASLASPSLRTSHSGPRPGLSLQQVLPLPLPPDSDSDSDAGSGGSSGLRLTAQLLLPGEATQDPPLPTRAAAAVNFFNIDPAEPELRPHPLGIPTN

| Compound | pIC50 [1] | pKi ([1]; Ki=IC50/(1+[L]/KD)) | nootropic effect (enhancement of memory disturbed by MK-801) (mice) |
| --- | --- | --- | --- |
| CSc1nn2cc3c(nc2c1S(=O)(=O)c1ccccc1)CCN(C)C3 [2.2(2)] | 6.10 | 6.43 | – |
| Cc1nn2c3c(cnc2c1S(=O)(=O)c1ccccc1)CN(C)CC3 [1.1(3).HCl] | – | – | ability of active ingredient 1.1(3).HCl to produce nootropic effect |
| CSc1nn2cc3c(nc2c1S(=O)(=O)c1ccc(F)cc1)CCN(C)C3 [2.2(3)] | < 6.00 | – | – |
| Cc1nn2c3c(cnc2c1S(=O)(=O)c1ccccc1)CNCC3 [1.1(1)] | 8.34 | – | – |
